Data: US20240208937A1, “Compounds and Their Use for Treatment of Hemoglobinopathies” (Bristol-Myers Squibb Company, priority 2022, published 2024)

Experiments:
Type in all cases: cell-based
[1] = system: fetal hemoglobin (HbF) in GCSF-mobilized human CD34+ cells; assay: HbF Induction Assay; settings: 168 h; compound 1 μM, 7 days, erythroid-differentiated human CD34+ cells, flow cytometry; DMSO baseline 15% HbF positive cells
Method in brief: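 GCSF-mobilized human CD34+ cells were expanded for 7 days with SCF, Flt3-L, IL-3 and EPO, then differentiated with SCF and EPO while dosed at 1 μM (0.1% DMSO), with compound refreshed every 2 days for 7 days. Viability and % HbF-positive cells and MFI were measured by flow cytometry with anti-HbF staining, relative to DMSO controls.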

[2] = biological target: ZBTB7A (Zinc Finger And BTB Domain Containing 7A) (Homo sapiens (Human), UniProt O95365+Q96SW2); assay: HUDEP-2 ZBTB7A HiBiT degradation assay; settings: HUDEP-2 ZBTB7A HiBiT cells, 24 hours treatment, luminescence; for DC50: read-out: ZBTB7A EC50
Method in brief: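 HUDEP-2 cells carrying HiBiT-tagged ZBTB7A, grown 48 h in IMDM with EPO, SCF, insulin, transferrin, heparin, dox and 5% human plasma, then seeded at 1.0×10^6 cells/ml on pre-dispensed compound (10 concentrations, 10–0.0005 μM) for 24 h at 37 °C. Lytic HiBiT luminescence, DMSO-normalised, gave EC50 and Y-min.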

[3] = biological target: WIZ (Widely interspaced zinc finger) (Homo sapiens (Human), UniProt O95785+Q96SW2); assay: HUDEP-2 WIZ HiBiT degradation assay; settings: HUDEP-2 WIZ HiBiT cells, 24 hours treatment, luminescence; for DC50: read-out: WIZ EC50
Method in brief: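 HiBiT-tagged WIZ HUDEP-2 cells were seeded at 1.0×10^6 cells/ml in supplemented StemSpan SFEM II with doxycycline and treated 24 h at 37 °C. Remaining tagged protein was read by Nano-Glo HiBiT lytic luminescence. EC50 and Y-min were fitted after DMSO normalization across 10 concentrations, 10 to 0.0005 μM.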

Chain of ZBTB7A (Zinc Finger And BTB Domain Containing 7A) (O95365 whole entry, the tested form may be a part): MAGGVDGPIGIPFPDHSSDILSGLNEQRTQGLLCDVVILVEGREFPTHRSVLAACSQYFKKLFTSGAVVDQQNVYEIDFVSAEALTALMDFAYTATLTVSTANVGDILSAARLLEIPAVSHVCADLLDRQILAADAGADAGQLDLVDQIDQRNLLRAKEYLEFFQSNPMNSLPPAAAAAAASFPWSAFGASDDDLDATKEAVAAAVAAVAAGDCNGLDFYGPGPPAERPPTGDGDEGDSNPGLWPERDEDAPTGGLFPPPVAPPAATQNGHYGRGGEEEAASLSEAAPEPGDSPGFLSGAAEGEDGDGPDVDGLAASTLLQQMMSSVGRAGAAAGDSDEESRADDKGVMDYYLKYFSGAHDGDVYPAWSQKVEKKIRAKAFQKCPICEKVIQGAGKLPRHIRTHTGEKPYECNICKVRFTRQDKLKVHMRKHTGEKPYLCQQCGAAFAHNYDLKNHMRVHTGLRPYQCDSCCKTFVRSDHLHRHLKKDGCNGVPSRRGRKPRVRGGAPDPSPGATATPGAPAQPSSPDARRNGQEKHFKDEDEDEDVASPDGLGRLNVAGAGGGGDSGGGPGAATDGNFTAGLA
Chain of ZBTB7A (Zinc Finger And BTB Domain Containing 7A) (Q96SW2 whole entry, the tested form may be a part): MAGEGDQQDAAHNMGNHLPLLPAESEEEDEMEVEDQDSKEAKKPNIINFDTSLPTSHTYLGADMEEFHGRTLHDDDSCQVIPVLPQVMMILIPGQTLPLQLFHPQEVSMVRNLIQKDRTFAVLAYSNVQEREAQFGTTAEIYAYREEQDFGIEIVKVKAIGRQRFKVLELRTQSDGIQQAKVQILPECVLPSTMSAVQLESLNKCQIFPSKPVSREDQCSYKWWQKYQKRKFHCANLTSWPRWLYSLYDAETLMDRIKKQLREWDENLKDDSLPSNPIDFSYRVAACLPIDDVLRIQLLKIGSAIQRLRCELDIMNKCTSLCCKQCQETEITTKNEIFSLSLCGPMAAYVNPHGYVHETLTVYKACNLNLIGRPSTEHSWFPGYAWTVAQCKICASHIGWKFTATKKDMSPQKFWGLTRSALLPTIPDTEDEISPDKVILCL
Chain of ZBTB7A (Zinc Finger And BTB Domain Containing 7A) (Q16531 whole entry partner, the tested form may be a part): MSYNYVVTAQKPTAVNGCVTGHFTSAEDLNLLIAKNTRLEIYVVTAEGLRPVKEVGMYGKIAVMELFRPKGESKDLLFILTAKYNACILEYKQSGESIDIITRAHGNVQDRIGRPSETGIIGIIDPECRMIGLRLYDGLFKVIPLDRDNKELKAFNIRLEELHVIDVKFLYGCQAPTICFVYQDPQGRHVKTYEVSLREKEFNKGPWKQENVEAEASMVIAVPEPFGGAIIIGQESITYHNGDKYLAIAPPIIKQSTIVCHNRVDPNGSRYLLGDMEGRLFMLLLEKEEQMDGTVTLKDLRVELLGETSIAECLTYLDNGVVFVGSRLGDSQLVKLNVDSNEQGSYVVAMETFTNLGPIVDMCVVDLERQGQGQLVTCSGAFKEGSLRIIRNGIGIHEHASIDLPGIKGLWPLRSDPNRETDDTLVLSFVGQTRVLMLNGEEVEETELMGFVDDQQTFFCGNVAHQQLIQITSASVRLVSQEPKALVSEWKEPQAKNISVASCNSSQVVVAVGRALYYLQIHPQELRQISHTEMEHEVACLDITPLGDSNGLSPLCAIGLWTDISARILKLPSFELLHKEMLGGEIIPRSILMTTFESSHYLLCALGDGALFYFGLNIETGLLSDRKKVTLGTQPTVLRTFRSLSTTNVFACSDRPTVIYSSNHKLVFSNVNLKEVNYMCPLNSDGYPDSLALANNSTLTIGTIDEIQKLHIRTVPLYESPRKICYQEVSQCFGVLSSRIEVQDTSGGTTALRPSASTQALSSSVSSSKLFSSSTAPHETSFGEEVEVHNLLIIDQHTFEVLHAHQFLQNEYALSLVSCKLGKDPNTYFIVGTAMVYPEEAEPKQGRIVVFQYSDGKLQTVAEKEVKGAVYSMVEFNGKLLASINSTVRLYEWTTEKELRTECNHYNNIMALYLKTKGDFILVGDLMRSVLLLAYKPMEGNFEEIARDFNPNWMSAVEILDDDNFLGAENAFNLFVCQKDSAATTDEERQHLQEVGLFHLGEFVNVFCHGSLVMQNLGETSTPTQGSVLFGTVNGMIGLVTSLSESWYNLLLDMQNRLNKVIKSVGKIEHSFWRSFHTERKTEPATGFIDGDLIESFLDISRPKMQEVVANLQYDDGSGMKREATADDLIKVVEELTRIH
Chain of WIZ (Widely interspaced zinc finger) (O95785 whole entry): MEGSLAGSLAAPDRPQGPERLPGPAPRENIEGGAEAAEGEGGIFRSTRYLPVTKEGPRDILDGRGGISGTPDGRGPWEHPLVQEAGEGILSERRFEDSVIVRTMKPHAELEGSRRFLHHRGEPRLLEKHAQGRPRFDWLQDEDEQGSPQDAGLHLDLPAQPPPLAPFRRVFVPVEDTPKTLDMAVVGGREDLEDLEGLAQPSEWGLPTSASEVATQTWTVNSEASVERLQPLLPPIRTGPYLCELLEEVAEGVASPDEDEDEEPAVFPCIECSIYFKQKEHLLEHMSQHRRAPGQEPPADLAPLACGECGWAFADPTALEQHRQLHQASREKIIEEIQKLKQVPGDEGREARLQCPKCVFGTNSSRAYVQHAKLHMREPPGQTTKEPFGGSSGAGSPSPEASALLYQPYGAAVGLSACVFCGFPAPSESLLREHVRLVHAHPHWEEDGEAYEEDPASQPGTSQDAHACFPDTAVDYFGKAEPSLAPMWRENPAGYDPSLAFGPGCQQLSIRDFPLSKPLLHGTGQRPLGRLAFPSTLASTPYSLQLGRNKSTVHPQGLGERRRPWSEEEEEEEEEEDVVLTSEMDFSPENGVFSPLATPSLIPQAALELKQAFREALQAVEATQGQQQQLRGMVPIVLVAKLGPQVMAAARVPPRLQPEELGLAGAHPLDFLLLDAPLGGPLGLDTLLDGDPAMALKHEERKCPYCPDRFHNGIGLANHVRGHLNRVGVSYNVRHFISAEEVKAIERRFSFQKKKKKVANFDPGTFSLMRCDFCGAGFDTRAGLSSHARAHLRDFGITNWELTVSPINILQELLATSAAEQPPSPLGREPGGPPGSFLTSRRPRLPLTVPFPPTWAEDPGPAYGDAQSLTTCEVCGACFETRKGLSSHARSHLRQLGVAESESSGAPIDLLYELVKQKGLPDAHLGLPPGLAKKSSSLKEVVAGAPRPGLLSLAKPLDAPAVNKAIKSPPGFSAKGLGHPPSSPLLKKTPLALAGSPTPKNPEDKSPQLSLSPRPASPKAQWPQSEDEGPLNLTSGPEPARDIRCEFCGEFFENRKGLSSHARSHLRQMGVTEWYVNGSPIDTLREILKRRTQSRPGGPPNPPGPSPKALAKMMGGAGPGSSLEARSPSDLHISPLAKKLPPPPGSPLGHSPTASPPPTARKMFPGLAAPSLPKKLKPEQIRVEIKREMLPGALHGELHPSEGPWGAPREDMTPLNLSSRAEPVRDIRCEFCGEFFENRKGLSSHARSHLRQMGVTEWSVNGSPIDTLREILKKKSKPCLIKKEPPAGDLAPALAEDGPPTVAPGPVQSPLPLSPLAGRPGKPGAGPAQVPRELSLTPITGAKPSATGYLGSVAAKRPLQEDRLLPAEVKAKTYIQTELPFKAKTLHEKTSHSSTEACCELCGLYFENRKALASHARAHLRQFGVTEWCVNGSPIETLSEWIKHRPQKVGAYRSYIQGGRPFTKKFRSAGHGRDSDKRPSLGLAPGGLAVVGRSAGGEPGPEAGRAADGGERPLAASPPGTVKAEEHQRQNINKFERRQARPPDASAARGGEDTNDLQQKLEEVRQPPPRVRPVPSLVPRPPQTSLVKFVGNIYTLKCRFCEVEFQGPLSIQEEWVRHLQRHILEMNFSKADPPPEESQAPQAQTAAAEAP
Chain of WIZ (Widely interspaced zinc finger) (Q96SW2 whole entry): as the sequence (Q96SW2 whole entry, the tested form may be a part) above
Chain of WIZ (Widely interspaced zinc finger) (Q16531 whole entry partner): as the sequence (Q16531 whole entry partner, the tested form may be a part) above

`Cc1cc(-c2cc3c(cc2Nc2cccc4c2C(=O)N([C@H]2CCC(=O)NC2=O)C4=O)n(C)c(=O)n3C)ccn1` [Compound 41, (S)-4-((1,3-dimethyl-6-(2-methylpyridin-4-yl)-2-oxo-2,3-dihydro-1H-benzo[d]imidazol-5-yl)amino)-2-(2,6-dioxopiperidin-3-yl)isoindoline-1,3-dione] showed an activation at 1 µM [1] of 66 to 100%, an EC50 [2] of less than 30 nM and an EC50 [3] of less than 10 nM.
Work on `Cn1ncc2cc(Nc3cccc4c3C(=O)N(C3CCC(=O)NC3=O)C4=O)c(Oc3cccc(Cl)c3)cc21` (stereo not drawn) [Compound 25, 4-((6-(3-chlorophenoxy)-1-methyl-1H-indazol-5-yl)amino)-2-(2,6-dioxopiperidin-3-yl)isoindoline-1,3-dione] yielded an activation at 1 µM [1] of 33 to 66%, an EC50 [2] greater than 100 nM and a DC50 [3] of 10 to 100 nM.
Compound `Cc1cc(-c2cc3c(cnn3C)cc2Nc2cccc3c2C(=O)N(C2CCC(=O)NC2=O)C3=O)cnn1` (stereo not drawn) [Compound 24, 2-(2,6-dioxopiperidin-3-yl)-4-((1-methyl-6-(6-methylpyridazin-4-yl)-1H-indazol-5-yl)amino)isoindoline-1,3-dione] has an activation at 1 µM [1] of 33 to 66%, an EC50 [2] greater than 100 nM and a DC50 [3] greater than 100 nM.
`Cc1cc(-c2cc3c(cc2Nc2cccc4c2C(=O)N([C@H]2CCC(=O)NC2=O)C4=O)n(C)c(=O)n3C)cc(C)n1` [Compound 40, (S)-4-((6-(2,6-dimethylpyridin-4-yl)-1,3-dimethyl-2-oxo-2,3-dihydro-1H-benzo[d]imidazol-5-yl)amino)-2-(2,6-dioxopiperidin-3-yl)isoindoline-1,3-dione] was tested, and the activation at 1 µM [1] was 66 to 100%, the EC50 [2] was less than 30 nM and the EC50 [3] was less than 10 nM.
`Cc1cc(-c2cc3c(cc2Nc2cccc4c2C(=O)N(C2CCC(=O)NC2=O)C4=O)c(C)nn3C)ccn1` (stereo not drawn) [Compound 3, 4-((1,3-dimethyl-6-(2-methylpyridin-4-yl)-1H-indazol-5-yl)amino)-2-(2,6-dioxopiperidin-3-yl)isoindoline-1,3-dione] gave an activation at 1 µM [1] of 66 to 100%, an EC50 [2] of less than 30 nM and a DC50 [3] of 10 to 100 nM.
`O=C1CCC(N2C(=O)c3cccc(Nc4c(Oc5ccccc5Cl)ccc5c4cnn5C4CCOCC4)c3C2=O)C(=O)N1` (stereo not drawn) [Compound 13, 4-((5-(2-chlorophenoxy)-1-(tetrahydro-2H-pyran-4-yl)-1H-indazol-4-yl)amino)-2-(2,6-dioxopiperidin-3-yl)isoindoline-1,3-dione] showed an activation at 1 µM [1] of 66 to 100%, a DC50 [2] of 30 to 100 nM and a DC50 [3] of 10 to 100 nM.
For `Cc1cc(-c2cc3c(cc2Nc2cccc4c2C(=O)N(C2CCC(=O)NC2=O)C4=O)nc(C)n3C)ccn1` (stereo not drawn) [Compound 23, 4-((1,2-dimethyl-6-(2-methylpyridin-4-yl)-1H-benzo[d]imidazol-5-yl)amino)-2-(2,6-dioxopiperidin-3-yl)isoindoline-1,3-dione], the activation at 1 µM [1] was 33 to 66%, the EC50 [2] was greater than 100 nM and the DC50 [3] was greater than 100 nM.
For `Cc1cc(-c2cc3c(cc2Nc2cccc4c2C(=O)N(C2CCC(=O)NC2=O)C4=O)N(C)C(=O)CC3)cc(C)n1` (stereo not drawn) [Compound 48, 4-((6-(2,6-dimethylpyridin-4-yl)-1-methyl-2-oxo-1,2,3,4-tetrahydroquinolin-7-yl)amino)-2-(2,6-dioxopiperidin-3-yl)isoindoline-1,3-dione], the activation at 1 µM [1] was 66 to 100%, the EC50 [2] was less than 30 nM and the EC50 [3] was less than 10 nM.
In the case of `Cn1ncc2cc(Oc3ccccc3)c(Nc3cccc4c3C(=O)N(C3CCC(=O)NC3=O)C4=O)cc21` (stereo not drawn) [Compound 27, 2-(2,6-dioxopiperidin-3-yl)-4-((1-methyl-5-phenoxy-1H-indazol-6-yl)amino)isoindoline-1,3-dione], the activation at 1 µM [1] is reported as less than 33%, the EC50 [2] is reported as greater than 100 nM and the DC50 [3] is reported as 10 to 100 nM.
Compound `Cc1cc(-c2cc3c(cnn3[C@@H]3CCOC3)cc2Nc2cccc3c2C(=O)N([C@@H]2CCC(=O)NC2=O)C3=O)ccn1` [Compound 52, 2-((R)-2,6-dioxopiperidin-3-yl)-4-((6-(2-methylpyridin-4-yl)-1-((R)-tetrahydrofuran-3-yl)-1H-indazol-5-yl)amino)isoindoline-1,3-dione] has an activation at 1 µM [1] of 66 to 100%, an EC50 [2] greater than 100 nM and an EC50 [3] of less than 10 nM.
Work on `Cc1cc(-c2cc3c(cnn3C)cc2Nc2cccc3c2C(=O)N([C@H]2CCC(=O)NC2=O)C3=O)ccn1` [Compound 42, (S)-2-(2,6-dioxopiperidin-3-yl)-4-((1-methyl-6-(2-methylpyridin-4-yl)-1H-indazol-5-yl)amino)isoindoline-1,3-dione] yielded an activation at 1 µM [1] of 33 to 66%, a DC50 [2] of 30 to 100 nM and a DC50 [3] greater than 100 nM.
Compound `Cc1csc(-c2cc3c(cc2Nc2cccc4c2C(=O)N(C2CCC(=O)NC2=O)C4=O)N(C)C(=O)CC3)n1` (stereo not drawn) [Compound 39, 2-(2,6-dioxopiperidin-3-yl)-4-((1-methyl-6-(4-methylthiazol-2-yl)-2-oxo-1,2,3,4-tetrahydroquinolin-7-yl)amino)isoindoline-1,3-dione] has an activation at 1 µM [1] of 33 to 66%, a DC50 [2] of 30 to 100 nM and a DC50 [3] of 10 to 100 nM.
Work on `Cc1cc(-c2cc3c(cc2Nc2cccc4c2C(=O)N(C2CCC(=O)NC2=O)C4=O)N(C)C(=O)CC3)ccn1` (stereo not drawn) [Compound 43, 2-(2,6-dioxopiperidin-3-yl)-4-((1-methyl-6-(2-methylpyridin-4-yl)-2-oxo-1,2,3,4-tetrahydroquinolin-7-yl)amino)isoindoline-1,3-dione] yielded an activation at 1 µM [1] of 66 to 100%, an EC50 [2] of less than 30 nM and an EC50 [3] of less than 10 nM.
Work on `Cc1ncncc1Oc1ccc2c(cnn2C)c1Nc1cccc2c1C(=O)N(C1CCC(=O)NC1=O)C2=O` (stereo not drawn) [Compound 26, 2-(2,6-dioxopiperidin-3-yl)-4-((1-methyl-5-((4-methylpyrimidin-5-yl)oxy)-1H-indazol-4-yl)amino)isoindoline-1,3-dione] yielded an activation at 1 µM [1] of less than 33%, an EC50 [2] greater than 100 nM and a DC50 [3] of 10 to 100 nM.
`Cc1cc(-c2cc3cnn(C)c3cc2Nc2cccc3c2C(=O)N(C2CCC(=O)NC2=O)C3=O)ccn1` (stereo not drawn) [Compound 7, 2-(2,6-dioxopiperidin-3-yl)-4-((1-methyl-5-(2-methylpyridin-4-yl)-1H-indazol-6-yl)amino)isoindoline-1,3-dione] gave an activation at 1 µM [1] of 66 to 100%, a DC50 [2] of 30 to 100 nM and a DC50 [3] of 10 to 100 nM.
With `Cc1cccc(F)c1Oc1ccc2c(cnn2C)c1Nc1cccc2c1C(=O)N(C1CCC(=O)NC1=O)C2=O` (stereo not drawn) [Compound 6, 2-(2,6-dioxopiperidin-3-yl)-4-((5-(2-fluoro-6-methylphenoxy)-1-methyl-1H-indazol-4-yl)amino)isoindoline-1,3-dione] the activation at 1 µM [1] was 66 to 100%, the DC50 [2] was 30 to 100 nM and the EC50 [3] was less than 10 nM.
With `Cc1cc(-c2cc3c(cnn3C)cc2Nc2cccc3c2C(=O)N(C2CCC(=O)NC2=O)C3=O)ccn1` (stereo not drawn) [Compound 19, 2-(2,6-dioxopiperidin-3-yl)-4-((1-methyl-6-(2-methylpyridin-4-yl)-1H-indazol-5-yl)amino)isoindoline-1,3-dione] the activation at 1 µM [1] was 66 to 100%, the EC50 [2] was greater than 100 nM and the DC50 [3] was greater than 100 nM.
Work on `COc1cc(-c2ccccc2)c(Nc2cccc3c2C(=O)N(C2CCC(=O)NC2=O)C3=O)cn1` (stereo not drawn) [Compound 30, 2-(2,6-dioxopiperidin-3-yl)-4-((6-methoxy-4-phenylpyridin-3-yl)amino)isoindoline-1,3-dione] yielded an activation at 1 µM [1] of less than 33%, a DC50 [2] of 30 to 100 nM and a DC50 [3] of 10 to 100 nM.
Compound `Cc1cc(-c2cc3c(cc2Nc2cccc4c2C(=O)N(C2CCC(=O)NC2=O)C4=O)N(C)C(=O)CC3)c(F)cn1` (stereo not drawn) [Compound 46, 2-(2,6-dioxopiperidin-3-yl)-4-((6-(5-fluoro-2-methylpyridin-4-yl)-1-methyl-2-oxo-1,2,3,4-tetrahydroquinolin-7-yl)amino)isoindoline-1,3-dione] has an activation at 1 µM [1] of 66 to 100%, an EC50 [2] of less than 30 nM and an EC50 [3] of less than 10 nM.
